Values quoted from earlier work as cited in patent US7064136B2, “Compounds” (AstraZeneca AB, priority 2000, dated 2006).
Like-named read-outs stand apart in the source and are kept apart here. Non-standard residues stand in square brackets, D forms with d. Residues, ends and D or L forms follow the SMILES beside them. *: point of attachment. Cyclohexanecarbonyl = O=C(C1CCCCC1)*

How the values were obtained:
Neurokinin receptor [1] = system: Neurokinin receptor
Neurokinin receptor [2] = settings: Forced swim test (depression model); anti-depressant (only at 30 mg/kb bid); Vassout et al Neuropeptides 26/S1:38, 1994
Neurokinin receptor [3] = settings: Elevated plus-maze
Neurokinin receptor [4] = settings: Light-dark box
Neurokinin receptor [5] = settings: Marmoset human intruder; Walsh et al., Psychopharmacology 121:186-191, 1995
[6] = Teixeira et al., Eur J Pharmacol 5;311(1):7-14, 1996
[7] = Stratton et al., Eur. J. Pharmacol. 250: R11-12, 1993
[8] = Walsh et al., Psychopharmacology 121:186-191, 1995

## Cc1cc(C)cc(C(=O)N2CC[C@H](NCc3ccnc4ccccc34)C[C@H]2Cc2ccccc2)c1 [CGP 49823]
Neurokinin receptor [1]; Social interaction test, Vassout et al Neuropeptides 26/S1:38, 1994
  Outcome: anxiolytic
Neurokinin receptor [1]; Social interaction, File Pharm Bio B 58(3):747-752, 1997
  Outcome: anxiolytic
Neurokinin receptor [2]
  Outcome: depressant
Neurokinin receptor [3]; Vassout et al Neuropeptides 26/S1:38, 1994
  Outcome: inactive anti-

## CN(Cc1ccccc1)C(=O)[C@H](Cc1ccc2ccccc2c1)NC(=O)[C@@H]1C[C@@H](O)CN1C(=O)c1cn(C)c2ccccc12 [FK888]
Neurokinin receptor [3]; [6]
  Outcome: anxiolytic

## C[C@H](NC(=O)CNC(=O)C1CCCCC1)C(=O)N[C@H](Cc1c[nH]c2ccccc12)C(=O)N[C@@H](Cc1ccccc1)C(=O)N(C)C [GR100679] (Cyclohexanecarbonyl-GA[dW]F-NMe2)
Neurokinin receptor [4]; [7]
  Outcome: anxiolytic

## COC1(C[S@@+]([O-])c2ccccc2)CCN(CCc2c[nH]c3ccc(F)cc23)CC1 [GR159897]
Neurokinin receptor [5]
  Outcome: anxiolytic
Neurokinin receptor [4]; [8]
  Outcome: anxiolytic

## CC(=O)NC1(c2ccccc2)CCN(CC[C@H](CN(C)C(=O)c2ccccc2)c2ccc(Cl)c(Cl)c2)CC1 [SR48968]
Neurokinin receptor [3]; [6]
  Outcome: anxiolytic
Neurokinin receptor [5]
  Outcome: anxiolytic
Neurokinin receptor [4]; [7]
  Outcome: anxiolytic
Neurokinin receptor [4]; [8]
  Outcome: anxiolytic
